In the supplement of paper PMC10307832:

Experiments:
Assay in all cases: relative viability (nuclei count vs DMSO), 5 days (fraction); higher = more cells survive
[1] = compound: O[C@@H](COc1cccc2ncccc12)CN1CCN([C@@H]2c3ccccc3[C@@H]3[C@H](c4ccccc42)C3(F)F)CC1 [Zosuquidar] + CS(=O)(=O)N1CCN(Cc2cc3nc(-c4cccc5[nH]ncc45)nc(N4CCOCC4)c3s2)CC1 [Pictilisib] (partner 1 µM)
Procedure, shortened: (§1)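 Relative viability equals treated-well nuclei counts divided by vehicle-well nuclei counts. Counts came from 4× images of lung cancer cell lines grown in 1536-well plates for 5 days after pin-tool dosing on the day after seeding. Dosing used one drug alone or a fixed anchor-drug dose plus five library-drug doses (not always all listed) in √10 steps, and values are medians of duplicate plates.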

[2] = compound: O[C@@H](COc1cccc2ncccc12)CN1CCN([C@@H]2c3ccccc3[C@@H]3[C@H](c4ccccc42)C3(F)F)CC1 [Zosuquidar] + CC(=O)c1c(C)c2cnc(Nc3ccc(N4CCNCC4)cn3)nc2n(C2CCCC2)c1=O [Palbociclib] (partner 0.5 µM)
Procedure, shortened: as §1

[3] = compound: O[C@@H](COc1cccc2ncccc12)CN1CCN([C@@H]2c3ccccc3[C@@H]3[C@H](c4ccccc42)C3(F)F)CC1 [Zosuquidar] + COc1cc2c(Oc3ccc(NC(=O)C4(C(=O)Nc5ccc(F)cc5)CC4)cc3F)ccnc2cc1OCCCN1CCOCC1 [Foretinib] (partner 0.25 µM)
Procedure, shortened: as §1

[4] = compound: COc1cc2nccc(Oc3ccc(NC(=O)C4(C(=O)Nc5ccc(F)cc5)CC4)cc3)c2cc1OC [Cabozantinib] + COc1cccc2cc(-c3nc([C@H]4CC[C@H](C(=O)O)CC4)n4ncnc(N)c34)[nH]c12 [OSI-027] (partner 0.5 µM)
Procedure, shortened: as §1

Cell Line	relative viability ([1]; first compound 0.01 µM)	relative viability ([1]; first compound 0.03162 µM)	relative viability ([1]; first compound 0.1 µM)	relative viability ([1]; first compound 0.3162 µM)	relative viability ([1]; first compound 1 µM)	relative viability ([2]; first compound 0.01 µM)	relative viability ([2]; first compound 0.03162 µM)	relative viability ([2]; first compound 0.1 µM)	relative viability ([2]; first compound 0.3162 µM)	relative viability ([2]; first compound 1 µM)	relative viability ([3]; first compound 0.01 µM)	relative viability ([3]; first compound 0.03162 µM)	relative viability ([3]; first compound 0.1 µM)	relative viability ([3]; first compound 0.3162 µM)	relative viability ([3]; first compound 1 µM)	relative viability ([4]; first compound 0.02 µM)	relative viability ([4]; first compound 0.06325 µM)	relative viability ([4]; first compound 0.2 µM)	relative viability ([4]; first compound 0.6325 µM)	relative viability ([4]; first compound 2 µM)
201T	0.659	0.683	0.573	0.677	0.665	0.349	0.343	0.365	0.354	0.337	1.16	1.17	0.935	1.04	1.19	0.453	0.877	0.772	0.877	0.774
A549	0.532	0.497	0.494	0.487	0.496	–	–	–	–	–	0.879	0.84	0.906	0.983	0.956	–	–	–	–	–
A-427	0.665	0.538	0.567	0.91	0.77	0.542	0.522	0.552	0.566	0.51	1.1	0.983	0.96	1.18	1.06	0.375	0.537	0.468	0.486	0.472
ABC-1	0.756	0.661	0.724	0.743	0.679	0.616	0.685	0.68	0.84	0.599	0.926	1.03	1.17	1.32	0.95	0.538	0.497	0.489	0.567	0.456
BEN	0.665	0.606	0.482	0.534	0.515	0.467	0.491	0.456	0.455	0.489	0.724	0.55	0.592	0.61	0.524	0.314	0.311	0.28	0.299	0.24
CAL-12T	0.349	0.494	–	0.533	0.423	0.381	0.62	0.412	0.593	0.462	1.12	1.18	0.978	1.18	1.02	0.588	0.688	0.711	0.715	0.645
COR-L23	0.76	0.658	0.679	1.01	0.889	0.295	0.328	0.301	0.354	0.314	0.994	0.926	0.956	0.962	1.06	0.88	0.965	0.94	0.895	0.784
COR-L 105	0.404	0.383	0.418	0.492	0.351	0.372	0.376	0.478	0.417	0.385	0.865	0.888	1.29	1.04	0.899	0.682	0.785	–	0.667	0.71
Calu-6	0.855	0.942	1.02	0.976	0.918	–	–	–	–	–	0.842	0.916	1.03	0.942	0.902	–	–	–	–	–
ChaGo-K-1	0.858	0.563	1.27	0.882	0.637	0.885	0.994	1.02	0.917	0.947	0.905	0.994	0.873	0.909	0.943	0.426	0.589	0.562	0.603	0.505
EBC-1	0.41	0.52	0.395	0.458	0.377	–	–	–	–	–	0.121	0.106	0.093	0.095	0.097	–	–	–	–	–
EKVX	0.427	0.446	0.346	0.455	0.444	0.377	0.39	–	0.411	0.375	0.692	0.734	0.589	0.954	0.748	0.655	0.981	0.637	0.679	0.778
EMC-BAC-2	0.511	0.524	0.47	0.635	0.508	0.508	0.451	0.544	0.577	0.521	0.965	1.11	0.995	1.06	0.985	0.337	0.379	0.398	0.385	0.361
EPLC-272H	0.308	0.344	0.311	0.272	0.35	0.32	0.362	0.298	0.31	0.336	0.778	0.683	0.57	0.817	0.671	0.257	0.326	0.215	0.345	0.29
H3255	0.49	0.565	0.412	0.526	0.42	0.306	0.335	0.32	0.33	0.33	0.957	0.607	0.621	0.938	0.738	0.527	0.662	–	0.621	0.613
HARA	0.589	0.404	0.312	0.5	0.49	0.324	0.18	0.304	0.245	0.299	0.857	–	0.883	0.866	0.999	0.309	0.633	0.377	0.57	0.555
HCC-15	0.686	0.778	0.753	0.801	0.854	0.721	0.689	0.702	0.723	0.715	1.08	1.08	0.864	1.04	1.09	0.477	0.744	0.66	0.657	0.622
HCC-44	0.615	0.57	0.603	0.742	0.815	0.974	1.04	0.944	1.02	0.956	–	–	–	–	–	–	0.646	0.556	0.557	0.408
HCC-78	0.211	0.235	–	0.232	0.402	0.477	0.545	–	0.492	0.462	0.549	0.548	–	0.571	0.606	–	0.439	0.287	0.291	0.258

Cell Line	relative viability ([1]; first compound 0.01 µM)	relative viability ([1]; first compound 0.03162 µM)	relative viability ([1]; first compound 0.1 µM)	relative viability ([1]; first compound 0.3162 µM)	relative viability ([1]; first compound 1 µM)	relative viability ([2]; first compound 0.01 µM)	relative viability ([2]; first compound 0.03162 µM)	relative viability ([2]; first compound 0.1 µM)	relative viability ([2]; first compound 0.3162 µM)	relative viability ([2]; first compound 1 µM)	relative viability ([3]; first compound 0.01 µM)	relative viability ([3]; first compound 0.03162 µM)	relative viability ([3]; first compound 0.1 µM)	relative viability ([3]; first compound 0.3162 µM)	relative viability ([3]; first compound 1 µM)	relative viability ([4]; first compound 0.02 µM)	relative viability ([4]; first compound 0.06325 µM)	relative viability ([4]; first compound 0.2 µM)	relative viability ([4]; first compound 0.6325 µM)	relative viability ([4]; first compound 2 µM)
HCC-366	0.154	0.185	0.15	0.151	0.195	0.322	0.402	0.355	0.394	0.338	0.922	0.856	0.999	0.96	0.869	0.753	1.03	0.951	0.795	0.778
HCC-827	1.08	1.14	0.774	1.05	0.994	0.503	0.497	0.501	0.498	0.491	1.05	1.03	0.9	1.01	1.02	0.782	0.861	–	0.679	0.526
HOP-62	0.684	0.86	0.579	0.81	0.831	0.444	0.535	0.444	0.426	0.401	1.09	1.25	1.01	1.1	1.08	0.825	0.915	0.781	0.829	0.781
IA-LM	0.306	0.394	0.342	0.315	0.324	–	–	–	–	–	1.09	1.23	1.26	1.34	1.17	–	–	–	–	–
LC-2-ad	0.386	0.566	0.41	0.493	0.524	0.468	0.465	0.492	0.493	0.486	0.975	0.933	0.862	1.03	0.931	–	0.933	0.74	0.839	0.729
LCLC-97TM1	0.203	0.219	–	0.192	0.226	0.227	0.274	–	0.193	0.215	0.922	0.929	0.9	1.01	0.974	0.153	0.572	0.448	0.57	0.689
LCLC-103H	0.541	0.569	0.542	0.607	0.737	0.453	0.717	0.513	0.489	0.482	0.694	0.678	0.698	0.844	0.809	0.344	0.561	0.487	0.509	0.394
LK-2	0.625	0.529	0.576	0.59	0.53	0.666	0.722	0.563	0.768	0.715	1.32	1.03	1.3	1.05	1.23	0.158	0.193	0.211	0.229	0.225
LOU-NH91	0.536	0.572	0.482	0.543	0.516	0.488	0.539	0.529	0.552	0.499	0.882	0.857	–	0.936	0.91	0.65	0.744	–	0.652	0.704
NCI-H522	–	–	–	–	–	1.14	0.869	1.01	1.09	0.908	–	–	–	–	–	0.585	0.79	0.7	0.766	0.767
NCI-H596	0.439	0.432	0.36	0.401	0.414	–	–	–	–	–	0.805	–	0.788	0.939	0.868	0.922	0.738	0.65	0.667	0.54
NCI-H1299	0.623	0.836	0.968	0.796	0.861	–	–	–	–	–	1.09	1.08	1.15	1.14	1.06	–	–	–	–	–
NCI-H1563	0.596	0.632	0.622	0.664	0.661	–	–	–	–	–	1.04	0.9	0.967	1.1	0.932	0.762	0.743	0.757	0.718	0.684
NCI-H1623	–	–	–	–	–	–	–	–	–	–	0.868	0.832	0.821	0.933	0.803	0.392	0.483	0.38	0.414	0.436
NCI-H1648	–	–	–	–	–	0.297	0.319	0.289	0.305	0.242	–	–	–	–	–	0.255	0.256	0.278	0.281	0.266
NCI-H1703	0.239	0.238	0.244	0.233	0.238	–	–	–	–	–	0.353	0.287	0.341	0.393	0.33	–	–	–	–	–
NCI-H1792	0.355	0.267	0.243	0.311	0.335	0.665	0.583	–	0.673	0.703	–	–	–	–	–	–	0.75	0.697	0.664	0.531
NCI-H2342	–	–	–	–	–	0.531	0.528	0.519	0.502	0.553	1.1	1.18	0.878	1	1.06	0.543	0.723	0.563	0.621	0.613
SW 900	–	–	–	–	–	0.568	0.558	–	0.665	0.596	0.761	0.86	0.819	0.952	0.854	0.637	0.695	0.637	0.554	0.376
